Laboratory results reported in patent US20240398822A1, “METHODS AND COMPOSITIONS FOR TREATING AND MANAGING ALZHEIMER'S DISEASE” (Pharmatrophix, Inc., priority 2021, published 2024).

How the values were obtained:
sTREM2 = assay: Phase IIa CSF glial biomarker sTREM2; assay type: in vivo, human
From the text: (§1) CSF samples were obtained at screening Visit and final Visit via lumbar puncture to determine levels of tau, p-tau, Aβ40, Aβ42 and AChE activity as an initial set of CSF biomarkers. Aliquots of CSF were made available for emerging CSF biomarker methods such as measurement of additional biomarkers including neurofilaments light chain, neurogranin, SNAP-25, synaptotagmin, YKL-40, TREM2, tau oligomers and for measurement of drug level in selected patients based on the time period between last dose of drug and CSF sampling (FIG. 25 and FIG. 58).
Baseline CSF samples are obtained prior to administration via lumbar puncture. These samples are used to determine levels of tau, p-tau, Aβ40, Aβ42, AChE, neurofilament light chain, SNAP-25, synaptotagmin-1, neurogranin, sTREM, and YKL-40. Aliquots of CSF are also made available for emerging CSF biomarker methods such as measurement of tau oligomers and for measurement of drug level in selected patients based on time period between last dose of the salt of Formula (II) and CSF sampling. […] Many of these biomarkers can also be measured in blood or plasma. The change in values over the time period from pre-treatment to post-treatment are of particular importance. […]

[1] = system: patients with mild to moderate Alzheimer's disease; assay: Phase IIa cognitive testing (ADAS-cog, MMSE); assay type: in vivo, human
Procedure: Exploratory outcome evaluations involved the assessment of cognitive and clinical function (Table 1). […] Items from the Neurological Testing Battery (NTB), together with the ADAS-Cog 13, Spatial Navigation Test (AMUNET) were performed at Baseline, Week 12 and Week 26 (Visits 2, 4 and 5). While the MMSE was used primarily as a screening and baseline disease staging tool, its repeated administration at Week 26 provided an additional exploratory cognitive outcome measure. The Geriatric Depression Scale (GDS) was assessed at each Visit (Screening, Baseline, Week 4, 12, 26: Visits 1-5) and the Clinical Global Impression test (CGI) with Severity was assessed at Screening (Visit 1) and then the Improvement was subsequently assessed at Weeks 12 and 26 (Visits 4 and 5). For each test, whether categorical or numeric, all raw scores were considered interval in nature. The change from Screening (Week −8) or Baseline (Week 0) was therefore be derived for each patient. Actual values at each Visit and Changes from Screening/Baseline were summarized.
Alzheimer's Disease Assessment Scale—13 items (total score=85) is used as a parameter for exploratory outcome analysis. ADAS-cog is a psychometric instrument designed to evaluate the severity of cognitive and non-cognitive behavioral dysfunctions characteristic of people with AD. The cognitive portion assesses memory, language and praxis functions. Most items are rated on a scale of 0 to 5, where 0 indicates no impairment and 1 to 5 indicates very mild (1), mild (2), moderate (3), moderately severe (4) or severe impairment (5) respectively. Other items are rated on the presence or absence of a characteristic number of errors or severity of errors. The total scores from the ADAS-cog sub-scales range from 0 (no impairment) to 85 (errors in all sub-tests).
A positive (i.e. increasing) change of the score indicates cognitive worsening. In a meta-analysis model of 52 Alzheimer's Disease trials involving 19,972 mild-moderate disease subjects, a spontaneous decline in performance corresponding to an increase in ADAS-cog score of 5.5 points over one year, pointing to an expected average increase in score of 2.75 points over a 6-month period.
ADAS-Cog was assessed at Visits 2, 4 and 5, as well as at the early discontinuation Visit, if applicable.
While the MMSE was used primarily as a screening and baseline disease-staging tool, its administration at Week 26 provided an additional exploratory cognitive outcome measure.
Mini Mental Status Exam (MMSE). The MMSE can be used by a physician to evaluate a patient's condition over the course of administration. A baseline value prior to administration of a salt of Formula (II) can serve as a basis for baseline disease stage and also for the assessment of the effect of treatment on slowing loss of cognitive function. The expected decline in MMSE over a six month period generally ranges 1-3 points out of the total of 30 points possible in the MMSE test.

[2] = system: healthy elderly volunteers; assay: Phase I (1b) safety and tolerability, 600 mg b.i.d. for 10 days
Procedure: Trial specific stopping rules were set to protect the trial subjects. Dosing would have been stopped for all subjects and the trial terminated if any of the stopping rules had occurred.
15 healthy adults were screened within three weeks prior to the baseline visit. Following 5 screening failures, 10 healthy adults, 5 aged 18-64 years and 5 aged 65-84 years were enrolled.
A phase 1b studied was conducted in 10 elderly normal subjects for the purpose of obtaining plasma and CSF coordinated drug levels and to further assess safety at a dose of 600 mg bid over a 10-day period. The study was double-blinded and placebo controlled with 8 subjects receiving drug.

SNAP-25 = assay: Phase IIa CSF pre-synaptic biomarker SNAP-25; assay type: in vivo, human
From the text: as §1
Baseline CSF samples are obtained prior to administration via lumbar puncture. These samples are used to determine levels of tau, p-tau, Aβ40, Aβ42, AChE, neurofilament light chain, SNAP-25, synaptotagmin-1, neurogranin, sTREM, and YKL-40. Aliquots of CSF are also made available for emerging CSF biomarker methods such as measurement of tau oligomers and for measurement of drug level in selected patients based on time period between last dose of the salt of Formula (II) and CSF sampling. […] Many of these biomarkers can also be measured in blood or plasma. The change in values over the time period from pre-treatment to post-treatment are of particular importance. […] Absolute levels at single time points of neurofilament light chain, SNAP-25, synaptotagmin-1, neurogranin, sTREM, and YKL-40 in CSF or blood or plasma are of less value given differences in assay techniques and wide variation in absolute levels within normal subjects and within and across AD subjects. In contrast, absolute levels of Aβ42 and 40 at baseline are useful biomarkers indicating the presence of amyloid pathology as low levels of Aβ42 and 40 at a given time point are consistent with amyloid pathology.

[3] = system: amyloid based mice (L/S-APP) or tau based mice (PS19); conditions: published mouse studies, cited from earlier work
[4] = 600 mg b.i.d. oral, 10 days, 8 subjects
[5] = non-serious AE, 600 mg b.i.d. oral, 10 days

With `CC[C@H](C)[C@H](N)C(=O)NCCN1CCOCC1` [LM11A-31-BHS, Tris[(2S,3S)-2-amino-3-methyl-N-(2-morpholinoethyl)pentanamide] tetra(monohydrogensulfate), monosulfate] the “CSF sTREM2, drug dose analysis” value (sTREM2; 200 and 400 mg doses) was “nominal reduction at the 200 and 400 mg doses”, the “CSF sTREM2, drug effect” value (sTREM2; combined drug group, 6-month period) was “no drug effect was detected” and the “ADAS-cog-11, drug dose analysis” value ([1]; 200 mg bid and 400 mg bid versus placebo) was “trend for decreased worsening of cognitive scores at both doses”. For the same compound, the “ADAS-cog-13, drug dose analysis” value ([1]; 200 and 400 mg groups versus placebo) was “nominal decrease in the increase in score”, the “slowing trend in clinical outcome measures” value ([1]; at 6 months, phase 2a study) was 30-45% and the “worsening of ADAS-13 and -11 scores, drug versus placebo” value ([1]; combined drug group, 26 weeks, does not reach statistical significance) was “trend in slowing the worsening”. For the same compound, the “directionality of slowing progression of worsening in ADAS-cog and MMSE” value ([1]; drug versus placebo) was “favorable effect of drug treatment”, the “trends for slower progression of ADAS-cog and MMSE scores, dose comparison” value ([1]; effects at neither dose reached statistical significance) was “greater at the 400 compared to 200 mg doses” and the “safety and tolerability in repeated dose schedule” value ([2]; 600 mg BID up to ten days of treatment) was “support the safety and tolerability”. For the same compound, the “number of deaths (all causes)” value ([2]; 600 mg b.i.d. oral, 10 days) was 0, the “number of deaths resulting from adverse events” value ([2]; 600 mg b.i.d. oral, 10 days) was 0 and the “serious adverse event Headache, occurrences causally related to treatment/all” value ([2]; 600 mg b.i.d. oral, 10 days) was 0/1. For the same compound, the “drug related serious adverse events” value [2, 4] was 0 drug related adverse events, the “mild drug related adverse events” value [2, 4] was 4 drug related adverse events and the “moderate drug related adverse events” value [2, 4] was 0 drug related adverse events. For the same compound, the “severe drug related adverse events” value [2, 4] was 0 drug related adverse events, the “Abdominal pain, occurrences (all)” value [2, 5] was 1 and the “Arthralgia, occurrences (all)” value [2, 5] was 3. For the same compound, the “Diarrhea, occurrences (all)” value [2, 5] was 1, the “Dry eye, occurrences (all)” value [2, 5] was 0 and the “Flatulence, occurrences (all)” value [2, 5] was 3. For the same compound, the “Gamma-glutamyltransferase increased, occurrences (all)” value [2, 5] was 1, the “Headache, occurrences (all)” value [2, 5] was 7 and the “Oropharyngeal pain, occurrences (all)” value [2, 5] was 0. The “Polyuria, occurrences (all)” value [2, 5] was 1, the “Presyncope, occurrences (all)” value [2, 5] was 0 and the “alterations in physical examination, vital signs and ECG recordings” value ([2]; phase 1b, 600 mg bid, 10-day period, 8 subjects receiving drug) was “no clinically relevant alterations”. The “changes in haematological and biochemistry parameters” value ([2]; phase 1b, 600 mg bid, 10 days, neither clinical relevance nor relationship with the study drug) was “Minimal changes”, the “CSF SNAP-25, drug dose analysis” value (SNAP-25; 200 and 400 mg doses, post hoc Dunn's test does not reach significance) was “significant main effect of drug dose” and the “drug effect in slowing or inhibiting the SNAP-25 increase, younger (<72 years) versus older (>=72 years)” value (SNAP-25; annual percent change (APC), 6-month trial period) was “greater than that found in the older group”. The “CSF SNAP-25 change in the drug group” value (SNAP-25; combined drug group, 6 months, drug effect p=0.01) was “no increase was detected”, the “effect on pathological tau, neurites, synapses and spines, astrocytes and microglia” value ([3]; GFAP and CD68 staining) was “inhibits levels of pathological tau, loss of neurites, loss of synapses and spines, activation of astrocytes (GFAP staining is less) and activation of microglia (CD68 staining is less)” and the “effect on synaptic function (LTP signal, EPSP slope in hippocampal slices)” value [3] was “corrects synaptic function”.
